Measured values from the NIST ThermoML archive (doi:10.1016/j.jct.2014.06.001).

Details: for mass density: 293 K, 101.33 kPa, Pycnometric method; for vapor or sublimation pressure: Transpiration method

CCN1C(=O)CC(=O)N(CC)C1=S [1,3-diethyl-2-thiobarbituric acid]
Details | mass density [kg/m3]
Crystal | 1610

Crystal
Details | vapor or sublimation pressure [kPa]
327.3 K | 0.00039
333.6 K | 0.00074
337.7 K | 0.0011
340 K | 0.00135
343 K | 0.00185
348 K | 0.00293
349.1 K | 0.0034
351 K | 0.00384
353.3 K | 0.00489
354.1 K | 0.00551
355.3 K | 0.00634
358.1 K | 0.00756
362.4 K | 0.01184
367.7 K | 0.01865
368.6 K | 0.02034
370.7 K | 0.02408
372.2 K | 0.02684
375.7 K | 0.03524
375.9 K | 0.03465

CCN1C(=O)CC(=O)N(CC)C1=O [1,3-diethylbarbituric acid]
Details | mass density [kg/m3]
Crystal | 1320

Liquid
Details | vapor or sublimation pressure [kPa]
328.9 K | 0.00282
333.8 K | 0.00441
339.1 K | 0.00675
346 K | 0.0115
351.2 K | 0.01744
356.2 K | 0.02535
360.3 K | 0.03131
366 K | 0.04999
371.3 K | 0.07142
376.8 K | 0.09721
380.7 K | 0.1327
